Active and inactive are the calls of the source. No cut-off for these calls is given here. Where a SMILES comes first, the peptide text is derived from it. Bridges are numbered along the chain shown (N, C = ends). [ ]: non-standard residue; d: D form. 1Nal = N[C@@H](Cc1cccc2ccccc12)C(=O)O; 2Nal = N[C@@H](Cc1ccc2ccccc2c1)C(=O)O
Columns and labels:
[1] = biological target: T1, Urotensin-2 receptor (Rattus norvegicus) (UniProt P49684); assay: Antagonist activity at rat urotensin 2 receptor expressed in CHO cells assessed as calcium mobilization at 300 nM by FLIPR; format: functional, cell-based
T1 sequence (whole entry): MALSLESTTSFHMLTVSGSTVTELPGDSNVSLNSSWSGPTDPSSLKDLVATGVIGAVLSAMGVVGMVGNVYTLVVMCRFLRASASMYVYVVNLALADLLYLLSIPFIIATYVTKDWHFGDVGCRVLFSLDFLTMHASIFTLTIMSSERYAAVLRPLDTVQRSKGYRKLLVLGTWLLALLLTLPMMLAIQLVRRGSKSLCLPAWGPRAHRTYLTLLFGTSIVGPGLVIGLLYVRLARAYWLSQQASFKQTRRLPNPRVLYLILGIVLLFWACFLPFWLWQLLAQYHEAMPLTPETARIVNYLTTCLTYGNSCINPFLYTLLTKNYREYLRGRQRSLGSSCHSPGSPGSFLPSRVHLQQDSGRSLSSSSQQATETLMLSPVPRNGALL

Urotensin-2 receptor [2] = biological target: T2, Urotensin-2 receptor (Rattus norvegicus, UniProt P49684); assay: Displacement of [125I]U2 from rat urotensin 2 receptor expressed in CHO cells; format: cell-based
T2 sequence (P49684 whole entry): T1 sequence (whole entry)

Urotensin-2 receptor [3] = biological target: T2, Urotensin-2 receptor; assay: Agonist activity at rat urotensin 2 receptor expressed in CHO cells assessed as calcium mobilization by FLIPR; format: functional, cell-based
[4] = biological target: T1, Urotensin-2 receptor (Rattus norvegicus); assay: Antagonist activity at rat urotensin 2 receptor expressed in CHO cells assessed as calcium mobilization at 100 nM by FLIPR; format: functional, cell-based
Aorta = assay: Vasoconstriction activity in spontaneously […] rat thoracic aorta at 30 nM; format: functional
[5] = biological target: T1, Urotensin-2 receptor (Rattus norvegicus); assay: Agonist activity at rat urotensin 2 receptor expressed in CHO cells assessed as calcium mobilization at 1000 nM by FLIPR; format: functional, cell-based
[6] = biological target: T1, Urotensin-2 receptor (Rattus norvegicus); assay: Antagonist activity at rat urotensin 2 receptor expressed in CHO cells assessed as calcium mobilization at 10000 nM by FLIPR; format: functional, cell-based

Compound | EC50 (Urotensin-2 receptor [3]) | Ki (Urotensin-2 receptor [2]) | also measured
CC(=O)N[C@H]1CSSC[C@@H](C(N)=O)NC(=O)[C@H](Cc2ccc(O)cc2)NC(=O)[C@H](CCCCN)NC(=O)[C@H](Cc2c[nH]c3ccccc23)NC(=O)[C@@H](Cc2ccccc2)NC1=O | – | – | Activity [1]: inactive; Ki (Urotensin-2 receptor [2]; cho): < 10000 nM
CC(=O)N[C@H]1CSSC[C@@H](C(N)=O)NC(=O)[C@H](Cc2ccc(O)cc2)NC(=O)[C@H](CCCCN)NC(=O)[C@@H](Cc2c[nH]c3ccccc23)NC(=O)[C@H](Cc2ccccc2)NC1=O | 26 nM | 610 nM | –
CC(=O)N[C@H]1CSSC[C@@H](C(N)=O)NC(=O)[C@@H](Cc2ccc(O)cc2)NC(=O)[C@H](CCCCN)NC(=O)[C@H](Cc2c[nH]c3ccccc23)NC(=O)[C@H](Cc2ccccc2)NC1=O | 37 nM | 1100 nM | –
CC(=O)N[C@H]1CSSC[C@@H](C(N)=O)NC(=O)[C@H](Cc2ccc(O)cc2)NC(=O)[C@@H](CCCCN)NC(=O)[C@H](Cc2c[nH]c3ccccc23)NC(=O)[C@H](Cc2ccccc2)NC1=O | – | – | Activity [1]: inactive; Ki (Urotensin-2 receptor [2]; cho): < 10000 nM
CC(=O)N[C@H]1CSSC[C@@H](C(N)=O)NC(=O)[C@H](Cc2ccc(O)cc2)NC(=O)[C@H](CCCCN)NC(=O)[C@H](Cc2c[nH]c3ccccc23)NC(=O)[C@H](Cc2ccccc2)NC1=O | 1.6 nM | 15 nM | –
COc1cc(Br)c(S(=O)(=O)Nc2ccc(C(F)(F)F)c(O[C@@H]3CCN(C)C3)c2)cc1OC | – | – | inhibition [4]: 97%
CC(=O)N[C@H]1CSSC[C@@H](C(N)=O)NC(=O)[C@H](C)NC(=O)[C@H](CCCCN)NC(=O)[C@H](Cc2c[nH]c3ccccc23)NC(=O)[C@H](Cc2ccccc2)NC1=O (Ac-CFWKAC-NH2; disulfide 1-6) | – | > 10000 nM | Activity (Aorta): 0%; Activity [5]: 50%
CC(=O)N[C@H]1CSSC[C@@H](C(N)=O)NC(=O)[C@H](Cc2ccccc2)NC(=O)[C@H](CCCCN)NC(=O)[C@H](Cc2c[nH]c3ccccc23)NC(=O)[C@H](Cc2ccccc2)NC1=O (Ac-CFWKFC-NH2; disulfide 1-6) | 2.1 nM | 17 nM | Activity (Aorta): 11%
CC(=O)N[C@H]1CSSC[C@@H](C(N)=O)NC(=O)[C@H](Cc2cccc3ccccc23)NC(=O)[C@H](CCCCN)NC(=O)[C@H](Cc2c[nH]c3ccccc23)NC(=O)[C@H](Cc2ccccc2)NC1=O (Ac-CFWK[1Nal]C-NH2; disulfide 1-6) | 1.5 nM | 4.1 nM | –
CC(=O)N[C@H]1CSSC[C@@H](C(N)=O)NC(=O)[C@H](Cc2ccc3ccccc3c2)NC(=O)[C@H](CCCCN)NC(=O)[C@H](Cc2c[nH]c3ccccc23)NC(=O)[C@H](Cc2ccccc2)NC1=O (Ac-CFWK[2Nal]C-NH2; disulfide 1-6) | – | – | Activity (Aorta): 43%
CC(=O)N[C@H]1CSSC[C@@H](C(N)=O)NC(=O)[C@H](Cc2ccc(O)cc2)NC(=O)[C@H](CCCCN)NC(=O)[C@H](Cc2ccc3ccccc3c2)NC(=O)[C@H](Cc2ccccc2)NC1=O (Ac-CF[2Nal]KYC-NH2; disulfide 1-6) | 31 nM | 200 nM | –
CC(=O)N[C@@H](Cc1c[nH]c2ccccc12)C(=O)N[C@@H](CCCCN)C(=O)N[C@@H](Cc1ccc(O)cc1)C(N)=O (Ac-Trp-Lys-Tyr-NH2) | < 500 nM | – | Ki (Urotensin-2 receptor [2]; cho): < 10000 nM
CC(C)[C@H](NC(=O)[C@@H]1CSSC[C@H](NC(=O)[C@H](C)NC(=O)[C@H](C)N)C(=O)N[C@@H](Cc2ccccc2)C(=O)N[C@@H](Cc2c[nH]c3ccccc23)C(=O)N[C@@H](CCCCN)C(=O)N[C@@H](Cc2ccc(O)cc2)C(=O)N1)C(=O)O (H-AACFWKYCV-OH; disulfide 3-8) | 0.6 nM | – | –
CC(C)[C@H](NC(=O)[C@@H]1CSSC[C@H](NC(=O)[C@H](CC(=O)O)NC(=O)[C@H](C)N)C(=O)N[C@@H](C)C(=O)N[C@@H](Cc2c[nH]c3ccccc23)C(=O)N[C@@H](CCCCN)C(=O)N[C@@H](Cc2ccc(O)cc2)C(=O)N1)C(=O)O (H-ADCAWKYCV-OH; disulfide 3-8) | 6.5 nM | – | –
CC(C)[C@H](NC(=O)[C@@H]1CSSC[C@H](NC(=O)[C@H](CC(=O)O)NC(=O)[C@H](C)N)C(=O)N[C@@H](Cc2ccccc2)C(=O)N[C@@H](C)C(=O)N[C@@H](CCCCN)C(=O)N[C@@H](Cc2ccc(O)cc2)C(=O)N1)C(=O)O (H-ADCFAKYCV-OH; disulfide 3-8) | > 1000 nM | – | –
CC(C)[C@H](NC(=O)[C@@H]1CSSC[C@H](NC(=O)[C@H](CC(=O)O)NC(=O)[C@H](C)N)C(=O)N[C@@H](Cc2ccccc2)C(=O)N[C@@H](Cc2c[nH]c3ccccc23)C(=O)N[C@@H](C)C(=O)N[C@@H](Cc2ccc(O)cc2)C(=O)N1)C(=O)O (H-ADCFWAYCV-OH; disulfide 3-8) | > 1000 nM | – | –
C[C@H](N)C(=O)N[C@@H](CC(=O)O)C(=O)N[C@H]1CSSC[C@@H](C(=O)N[C@@H](C)C(=O)O)NC(=O)[C@H](Cc2ccc(O)cc2)NC(=O)[C@H](CCCCN)NC(=O)[C@H](Cc2c[nH]c3ccccc23)NC(=O)[C@H](Cc2ccccc2)NC1=O (H-ADCFWKYCA-OH; disulfide 3-8) | 0.4 nM | – | –
CC(C)[C@H](NC(=O)[C@@H]1CSSC[C@H](NC(=O)[C@H](CC(=O)O)NC(=O)[C@H](C)N)C(=O)N[C@@H](Cc2ccccc2)C(=O)N[C@@H](Cc2c[nH]c3ccccc23)C(=O)N[C@@H](CCCCN)C(=O)N[C@@H](Cc2ccc(O)cc2)C(=O)N1)C(=O)O (H-ADCFWKYCV-OH; disulfide 3-8) | 0.16 nM | – | –
CC(C)[C@H](NC(=O)[C@@H]1CSSC[C@H](NC(=O)[C@H](CC(=O)O)NC(=O)[C@H](C)NC(=O)[C@@H](NC(=O)CNC(=O)[C@H](C)N)[C@@H](C)O)C(=O)N[C@@H](Cc2ccccc2)C(=O)N[C@@H](Cc2c[nH]c3ccccc23)C(=O)N[C@@H](CCCCN)C(=O)N[C@@H](Cc2ccc(O)cc2)C(=O)N1)C(=O)O (H-AGTADCFWKYCV-OH; disulfide 6-11) | 0.17 nM | 0.19 nM | Activity (Aorta): 91%
CC(C)[C@H](NC(=O)[C@@H]1CSSC[C@H](NC(=O)[C@H](CC(=O)O)NC(=O)[C@H](C)NC(=O)[C@@H](NC(=O)CNC(=O)[C@H](C)N)[C@@H](C)O)C(=O)N[C@@H](Cc2ccccc2)C(=O)N[C@@H](Cc2c[nH]c3ccccc23)C(=O)N[C@@H](CCCCN)C(=O)N[C@@H](Cc2ccc3ccccc3c2)C(=O)N1)C(=O)O (H-AGTADCFWK[2Nal]CV-OH; disulfide 6-11) | 0.34 nM | 0.02 nM | –
CC(C)[C@H](NC(=O)[C@@H]1CSSC[C@H](NC(=O)[C@H](CC(N)=O)NC(=O)[C@H](C)N)C(=O)N[C@@H](Cc2ccccc2)C(=O)N[C@@H](C)C(=O)N[C@@H](CCCCN)C(=O)N[C@@H](Cc2ccc(O)cc2)C(=O)N1)C(=O)O (H-ANCFAKYCV-OH; disulfide 3-8) | – | – | Activity [6]: inactive
CC(C)[C@H](NC(=O)[C@@H]1CSSC[C@H](NC(=O)[C@H](CC(N)=O)NC(=O)[C@H](C)N)C(=O)N[C@@H](Cc2ccccc2)C(=O)N[C@@H](Cc2c[nH]c3ccccc23)C(=O)N[C@@H](C)C(=O)N[C@@H](Cc2ccc(O)cc2)C(=O)N1)C(=O)O (H-ANCFWAYCV-OH; disulfide 3-8) | – | – | Activity [6]: inactive
CC(C)[C@H](NC(=O)[C@@H]1CSSC[C@H](NC(=O)[C@H](CC(N)=O)NC(=O)[C@H](C)N)C(=O)N[C@@H](Cc2ccccc2)C(=O)N[C@@H](Cc2c[nH]c3ccccc23)C(=O)N[C@@H](CCCCN)C(=O)N[C@@H](C)C(=O)N1)C(=O)O (H-ANCFWKACV-OH; disulfide 3-8) | – | – | Activity [6]: inactive; Activity [5]: 67%
NCCCC[C@@H]1NC(=O)[C@H](Cc2c[nH]c3ccccc23)NC(=O)[C@H](Cc2ccccc2)NC(=O)[C@@H](N)CSSC[C@@H](C(=O)O)NC(=O)[C@H](Cc2ccc(O)cc2)NC1=O (H-CFWKYC-OH; disulfide 1-6) | 1.6 nM | – | –
CC(C)[C@H](NC(=O)[C@@H]1CSSC[C@H](N)C(=O)N[C@@H](Cc2ccccc2)C(=O)N[C@@H](Cc2c[nH]c3ccccc23)C(=O)N[C@@H](CCCCN)C(=O)N[C@@H](Cc2ccc(O)cc2)C(=O)N1)C(=O)O (H-CFWKYCV-OH; disulfide 1-6) | 0.76 nM | – | –
CC(C)[C@H](NC(=O)[C@@H]1CSSC[C@H](NC(=O)[C@@H](N)CC(=O)O)C(=O)N[C@@H](Cc2ccccc2)C(=O)N[C@@H](Cc2c[nH]c3ccccc23)C(=O)N[C@@H](CCCCN)C(=O)N[C@@H](Cc2ccc(O)cc2)C(=O)N1)C(=O)O (H-DCFWKYCV-OH; disulfide 2-7) | 0.1 nM | – | –
CC(C)[C@H](NC(=O)[C@@H]1CSSC[C@H](NC(=O)[C@H](CC(=O)O)NC(=O)[C@H](C)NC(=O)[C@@H](NC(=O)CN)[C@@H](C)O)C(=O)N[C@@H](Cc2ccccc2)C(=O)N[C@@H](Cc2c[nH]c3ccccc23)C(=O)N[C@@H](CCCCN)C(=O)N[C@@H](Cc2ccc(O)cc2)C(=O)N1)C(=O)O (H-GTADCFWKYCV-OH; disulfide 5-10) | 0.29 nM | – | –
CC(C)[C@H](NC(=O)[C@@H]1CSSC[C@H](NC(=O)[C@H](CC(=O)O)NC(=O)[C@H](C)NC(=O)[C@@H](N)[C@@H](C)O)C(=O)N[C@@H](Cc2ccccc2)C(=O)N[C@@H](Cc2c[nH]c3ccccc23)C(=O)N[C@@H](CCCCN)C(=O)N[C@@H](Cc2ccc(O)cc2)C(=O)N1)C(=O)O (H-TADCFWKYCV-OH; disulfide 4-9) | 0.11 nM | – | –
Ac-SFWKYS-NH2 | < 500 nM | – | Activity [1]: inactive; Ki (Urotensin-2 receptor [2]; cho): < 10000 nM; Activity [5]: 50%
